Patent US12370165B2, “Hunger suppression” (TDeltaS Limited, priority 2017, dated 2025)

Experiments:
[1] = system: appetite; settings: rats; cited from earlier work
[2] = system: hunger; experiment: Visual-analogue-scale (VAS) for hunger, desire to eat and fullness after study drink; format: in vivo, human
Experimental: A randomised, single-blinded, cross-over study examined the effects of isocaloric ketone ester (KE) and dextrose drinks hunger in healthy, normal-weight participants (n=15) (FIG. 1A). An external Research Ethics Committee (14/LO/0288) approved the study, which was conducted at the University of Oxford in accordance with the Declaration of Helsinki. Participants were healthy, aged 21-42 and with no history of major illness (Anthropometric characteristics in Table 1). Participants provided written informed consent prior to inclusion. Drink order was randomised prior to commencement. Participants refrained from alcohol and caffeine for 24 h prior to each visit and consumed an identical evening meal, at the same time before each visit. Testing started at 0800 h following an overnight (>8 h) fast, with a minimum of 72 h between visits. Venous blood samples (2 ml) were obtained using a 22G catheter inserted into an antecubital vein. Fasting blood samples were collected prior to all interventions and then at regular intervals for 4 h following the study drink. At identical time points, participants completed a validated three-measure visual-analogue-scale (VAS) to assess ‘hunger,’ ‘desire to eat and’ fullness' (Stubbs et al., “The use of visual analogue scales to assess motivation to eat in human subjects: a review of their reliability and validity with an evaluation of new hand-held computerized systems for temporal tracking of hunger ratings”, Br J Nutr, 2000, 84(4):405-15). Each drink contained 1.9 kCal/kg of pHB (as ketone ester) or dextrose. Drinks were diluted to 500 ml with a commercially available citrus-flavoured drink containing 65 kCal ([…] of carbohydrate) (Glaceau, UK). The dextrose drink was taste-matched using a bitterness additive (Symrise, Holzminden, Germany). Prism6™ software was used for statistical analysis. VAS scores were measured as a distance (mm), and normalised by taking the baseline distance for each visit as ‘0’. Values are means±SEM with significance at p<0.05. […] Correlations were calculated using a two-tailed Pearson's test with a 95% confidence interval.

[3] = system: plasma glucose; experiment: Plasma glucose after study drink (commercial analyzer); format: in vivo, human
Experimental: (§1) A randomised, single-blinded, cross-over study examined the effects of isocaloric ketone ester (KE) and dextrose drinks hunger in healthy, normal-weight participants (n=15) (FIG. 1A). An external Research Ethics Committee (14/LO/0288) approved the study, which was conducted at the University of Oxford in accordance with the Declaration of Helsinki. Participants were healthy, aged 21-42 and with no history of major illness (Anthropometric characteristics in Table 1). Participants provided written informed consent prior to inclusion. Drink order was randomised prior to commencement. Participants refrained from alcohol and caffeine for 24 h prior to each visit and consumed an identical evening meal, at the same time before each visit. Testing started at 0800 h following an overnight (>8 h) fast, with a minimum of 72 h between visits. Venous blood samples (2 ml) were obtained using a 22G catheter inserted into an antecubital vein. […] Blood pHB was measured using a handheld monitor and reagent strips (Precision Xtra, Abbott Diabetes Care, UK). Blood samples were stored on ice, centrifuged and duplicate plasma aliquots stored at −80° C. and analysed within 6 weeks. Plasma glucose was assayed using a commercial analyzer (ABX Pentra, France), whereas insulin, total ghrelin, GLP-1 and PYY were measured using commercially available ELISA assays (Mercodia, Sweden and Merck Millipore, Germany).

[4] = system: insulin; experiment: Plasma insulin after study drink (ELISA); format: in vivo, human
Experimental: as §1

[5] = system: total ghrelin; experiment: Plasma total ghrelin after study drink (ELISA); format: in vivo, human
Experimental: A randomised, single-blinded, cross-over study examined the effects of isocaloric ketone ester (KE) and dextrose drinks hunger in healthy, normal-weight participants (n=15) (FIG. 1A). An external Research Ethics Committee (14/LO/0288) approved the study, which was conducted at the University of Oxford in accordance with the Declaration of Helsinki. Participants were healthy, aged 21-42 and with no history of major illness (Anthropometric characteristics in Table 1). Participants provided written informed consent prior to inclusion. Drink order was randomised prior to commencement. Participants refrained from alcohol and caffeine for 24 h prior to each visit and consumed an identical evening meal, at the same time before each visit. Testing started at 0800 h following an overnight (>8 h) fast, with a minimum of 72 h between visits. Venous blood samples (2 ml) were obtained using a 22G catheter inserted into an antecubital vein. Fasting blood samples were collected prior to all interventions and then at regular intervals for 4 h following the study drink. At identical time points, participants completed a validated three-measure visual-analogue-scale (VAS) to assess ‘hunger,’ ‘desire to eat and’ fullness' (Stubbs et al., “The use of visual analogue scales to assess motivation to eat in human subjects: a review of their reliability and validity with an evaluation of new hand-held computerized systems for temporal tracking of hunger ratings”, Br J Nutr, 2000, 84(4):405-15). Each drink contained 1.9 kCal/kg of pHB (as ketone ester) or dextrose. Drinks were diluted to 500 ml with a commercially available citrus-flavoured drink containing 65 kCal (5 g of carbohydrate) (Glaceau, UK). The dextrose drink was taste-matched using a bitterness additive (Symrise, Holzminden, Germany). Blood pHB was measured using a handheld monitor and reagent strips (Precision Xtra, Abbott Diabetes Care, UK). Blood samples were stored on ice, centrifuged and duplicate plasma aliquots stored at −80° C. and analysed within 6 weeks. Plasma glucose was assayed using a commercial analyzer (ABX Pentra, France), whereas insulin, total ghrelin, GLP-1 and PYY were measured using commercially available ELISA assays (Mercodia, Sweden and Merck Millipore, Germany).

[6] = system: GLP-1; experiment: Plasma GLP-1 after study drink (ELISA); format: in vivo, human; settings: after 30 min
Experimental: as §1

[7] = system: PYY; experiment: Plasma PYY after study drink (ELISA); format: in vivo, human; settings: after 30 min
Experimental: as §1

[8] = General findings on esters: circulating (R)-3-hydroxybutyrate, gut uptake; format: in vivo
[9] = system: plasma ghrelin; experiment: General finding on esters: plasma ghrelin levels; settings: in vivo

CC(O)CCOC(=O)CC(C)O (centres unmarked) [3-hydroxybutyl 3-hydroxybutyrate]
appetite [1]: suppress appetite

C[C@@H](O)CCOC(=O)C[C@@H](C)O [KE]
Perceived 'Fullness' ([2]; KE vs dextrose drinks): the same | 'desire to eat' lowered compared to dextrose drinks ([2]; for 1.5 to 4 h after drink): −50% | perception of 'hunger' lowered compared to dextrose drinks ([2]; for 1.5 to 4 h after drink): −50% | Plasma glucose levels ([3]; 30 min after drink, mean±SEM): 5.1 ± 0.2 mM | plasma glucose, difference between KE and dextrose drinks ([3]; after 90 min): no significant differences | Plasma insulin levels ([4]; 30 min after drink, mean±SEM): 13±2 mU/L | plasma insulin, difference between KE and dextrose drinks ([4]; after 90 min): no significant differences | plasma ghrelin ([5]; 1 h following drink): 320 pg/mL | Total ghrelin AUC lower with KE vs. dextrose ([5]; 4 h after drink): 17% | Total ghrelin AUC ([5]; 4 h after drink, mean±SEM): 86 ± 6 ng·min/mL | plasma ghrelin lower than after dextrose ([5]; between 2-4 h post-drink): > 100 pg/mL | plasma GLP-1 levels [6]: 5 pg/mL | plasma PYY levels [7]: 57 pg/mL

C[C@@H](O)CCOC(=O)C[C@@H](C)O [(R)-3-hydroxybutyrate (R)-1,3-butanediol monoester]
circulating levels of (R)-3-hydroxybutyrate in the blood ([8]; in vivo): high circulating levels | uptake in the gut ([8]; in vivo): surprisingly high level of uptake | plasma ghrelin levels [9]: reduce plasma ghrelin levels

(R)-3-hydroxybutyrate-glycerol partial ester
uptake in the gut ([8]; in vivo): surprisingly high level of uptake | circulating levels of (R)-3-hydroxybutyrate in the blood ([8]; upon consumption of a drink): high circulating levels | plasma ghrelin levels [9]: reduce plasma ghrelin levels
